Data: US20150087627A1, “COMBINATION OF KINASE INHIBITORS AND USES THEREOF” (Intellikine LLC, priority 2011, published 2015)

Tests used:
Assay type in all cases: biochemical
PI3K β (p110β/p85α) = target: T1, PI3K β (p110β/p85α) (Homo sapiens, UniProt P42338); experiment: PI 3-Kinase (human) HTRF assay, PI3K β; conditions: read-out: PI3K β IC50
T1 construct: purchased Upstate / Millipore Corporation

PI3K α (p110α/p85α) = target: T2, PI3K α (p110α/p85α) (Homo sapiens, UniProt P42336); experiment: PI 3-Kinase (human) HTRF assay, PI3K α; conditions: read-out: PI3K α IC50
T2 construct: purchased Upstate / Millipore Corporation

PI3K γ (p110γ) = target: T3, PI3K γ (p110γ) (Homo sapiens, UniProt P48736); experiment: PI 3-Kinase (human) HTRF assay, PI3K γ; conditions: read-out: PI3K γ IC50
T3 construct: purchased Upstate / Millipore Corporation

PI3K δ = target: T4, PI3K δ (Homo sapiens, UniProt O00329); experiment: PI 3-Kinase (human) HTRF assay, PI3K δ; conditions: read-out: PI3K δ IC50
T4 construct: purchased Upstate / Millipore Corporation
T4 sequence (O00329 whole entry): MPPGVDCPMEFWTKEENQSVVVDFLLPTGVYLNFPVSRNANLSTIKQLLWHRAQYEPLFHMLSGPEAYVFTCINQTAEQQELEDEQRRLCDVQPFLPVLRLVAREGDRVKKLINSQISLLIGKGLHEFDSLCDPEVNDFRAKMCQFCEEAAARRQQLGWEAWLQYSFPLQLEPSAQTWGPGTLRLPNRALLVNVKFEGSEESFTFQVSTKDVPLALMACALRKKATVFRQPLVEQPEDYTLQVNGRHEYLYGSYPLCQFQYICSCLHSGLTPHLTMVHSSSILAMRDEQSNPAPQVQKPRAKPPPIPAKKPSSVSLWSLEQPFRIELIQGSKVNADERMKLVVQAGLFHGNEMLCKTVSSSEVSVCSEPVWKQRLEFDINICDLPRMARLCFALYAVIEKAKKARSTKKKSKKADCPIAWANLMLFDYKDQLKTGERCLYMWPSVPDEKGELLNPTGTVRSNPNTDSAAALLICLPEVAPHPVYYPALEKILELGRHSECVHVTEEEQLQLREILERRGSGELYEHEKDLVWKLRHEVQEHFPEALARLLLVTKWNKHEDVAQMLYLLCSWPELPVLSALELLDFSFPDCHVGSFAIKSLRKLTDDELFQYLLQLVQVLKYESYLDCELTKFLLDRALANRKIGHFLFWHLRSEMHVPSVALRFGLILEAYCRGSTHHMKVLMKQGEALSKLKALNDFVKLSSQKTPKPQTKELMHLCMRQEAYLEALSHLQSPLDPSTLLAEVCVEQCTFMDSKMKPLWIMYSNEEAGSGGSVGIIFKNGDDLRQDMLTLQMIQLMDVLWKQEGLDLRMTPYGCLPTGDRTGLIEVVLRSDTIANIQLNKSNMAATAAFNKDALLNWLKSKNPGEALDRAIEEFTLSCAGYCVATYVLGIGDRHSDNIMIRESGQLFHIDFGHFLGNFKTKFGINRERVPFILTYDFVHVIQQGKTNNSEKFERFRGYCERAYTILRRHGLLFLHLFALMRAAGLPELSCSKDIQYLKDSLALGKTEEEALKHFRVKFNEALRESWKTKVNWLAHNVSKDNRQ
T4 sequence (P27986 whole entry partner): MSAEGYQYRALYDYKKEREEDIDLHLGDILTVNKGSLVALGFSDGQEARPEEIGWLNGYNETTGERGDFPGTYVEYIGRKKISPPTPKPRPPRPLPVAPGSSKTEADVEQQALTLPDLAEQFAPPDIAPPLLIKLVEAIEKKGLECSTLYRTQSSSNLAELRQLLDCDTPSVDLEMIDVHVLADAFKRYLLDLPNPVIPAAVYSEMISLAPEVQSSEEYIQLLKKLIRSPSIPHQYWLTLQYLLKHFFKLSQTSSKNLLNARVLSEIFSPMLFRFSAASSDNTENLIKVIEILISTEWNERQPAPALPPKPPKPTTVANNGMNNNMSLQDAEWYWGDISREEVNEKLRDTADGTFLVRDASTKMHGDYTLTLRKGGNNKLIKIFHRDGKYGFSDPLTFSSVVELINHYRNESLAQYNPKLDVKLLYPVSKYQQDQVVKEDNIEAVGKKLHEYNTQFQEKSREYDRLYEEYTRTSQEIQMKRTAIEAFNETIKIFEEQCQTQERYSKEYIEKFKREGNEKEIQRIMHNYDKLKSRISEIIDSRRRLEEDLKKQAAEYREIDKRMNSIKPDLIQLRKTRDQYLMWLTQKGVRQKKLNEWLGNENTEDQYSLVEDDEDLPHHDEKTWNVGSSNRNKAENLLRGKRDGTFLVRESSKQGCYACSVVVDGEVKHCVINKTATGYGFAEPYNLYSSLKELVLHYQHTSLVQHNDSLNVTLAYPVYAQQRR

T1 sequence (P42338 whole entry): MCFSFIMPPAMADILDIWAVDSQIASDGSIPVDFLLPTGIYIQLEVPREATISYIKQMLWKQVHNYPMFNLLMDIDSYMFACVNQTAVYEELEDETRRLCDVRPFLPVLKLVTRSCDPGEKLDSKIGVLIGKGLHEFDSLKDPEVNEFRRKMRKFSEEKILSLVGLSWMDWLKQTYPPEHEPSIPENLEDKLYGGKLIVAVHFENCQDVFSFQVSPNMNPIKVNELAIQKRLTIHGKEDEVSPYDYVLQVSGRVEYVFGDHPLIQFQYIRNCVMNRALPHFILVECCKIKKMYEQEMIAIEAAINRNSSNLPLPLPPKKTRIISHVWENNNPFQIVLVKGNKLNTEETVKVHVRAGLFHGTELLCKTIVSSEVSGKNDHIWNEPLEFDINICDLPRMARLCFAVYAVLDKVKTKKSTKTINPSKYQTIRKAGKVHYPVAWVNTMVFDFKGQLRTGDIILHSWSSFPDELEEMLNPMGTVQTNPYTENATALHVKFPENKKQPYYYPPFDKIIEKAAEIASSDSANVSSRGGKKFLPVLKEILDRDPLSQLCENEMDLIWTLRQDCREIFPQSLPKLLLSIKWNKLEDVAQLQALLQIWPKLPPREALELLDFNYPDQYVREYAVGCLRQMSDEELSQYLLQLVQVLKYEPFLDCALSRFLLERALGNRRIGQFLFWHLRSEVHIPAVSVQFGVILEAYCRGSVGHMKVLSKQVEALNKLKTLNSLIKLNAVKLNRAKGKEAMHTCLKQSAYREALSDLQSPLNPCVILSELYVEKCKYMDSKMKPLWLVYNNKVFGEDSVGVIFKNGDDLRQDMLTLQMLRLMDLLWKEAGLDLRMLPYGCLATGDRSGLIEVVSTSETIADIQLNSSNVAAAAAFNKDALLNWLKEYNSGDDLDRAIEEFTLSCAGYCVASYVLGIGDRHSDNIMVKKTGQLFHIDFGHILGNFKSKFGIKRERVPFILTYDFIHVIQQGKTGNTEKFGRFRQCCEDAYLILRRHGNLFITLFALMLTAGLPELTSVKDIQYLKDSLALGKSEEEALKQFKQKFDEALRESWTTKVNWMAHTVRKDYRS
T1 sequence (P27986 whole entry partner): as the sequence (P27986 whole entry partner) above
T2 sequence (P42336 whole entry): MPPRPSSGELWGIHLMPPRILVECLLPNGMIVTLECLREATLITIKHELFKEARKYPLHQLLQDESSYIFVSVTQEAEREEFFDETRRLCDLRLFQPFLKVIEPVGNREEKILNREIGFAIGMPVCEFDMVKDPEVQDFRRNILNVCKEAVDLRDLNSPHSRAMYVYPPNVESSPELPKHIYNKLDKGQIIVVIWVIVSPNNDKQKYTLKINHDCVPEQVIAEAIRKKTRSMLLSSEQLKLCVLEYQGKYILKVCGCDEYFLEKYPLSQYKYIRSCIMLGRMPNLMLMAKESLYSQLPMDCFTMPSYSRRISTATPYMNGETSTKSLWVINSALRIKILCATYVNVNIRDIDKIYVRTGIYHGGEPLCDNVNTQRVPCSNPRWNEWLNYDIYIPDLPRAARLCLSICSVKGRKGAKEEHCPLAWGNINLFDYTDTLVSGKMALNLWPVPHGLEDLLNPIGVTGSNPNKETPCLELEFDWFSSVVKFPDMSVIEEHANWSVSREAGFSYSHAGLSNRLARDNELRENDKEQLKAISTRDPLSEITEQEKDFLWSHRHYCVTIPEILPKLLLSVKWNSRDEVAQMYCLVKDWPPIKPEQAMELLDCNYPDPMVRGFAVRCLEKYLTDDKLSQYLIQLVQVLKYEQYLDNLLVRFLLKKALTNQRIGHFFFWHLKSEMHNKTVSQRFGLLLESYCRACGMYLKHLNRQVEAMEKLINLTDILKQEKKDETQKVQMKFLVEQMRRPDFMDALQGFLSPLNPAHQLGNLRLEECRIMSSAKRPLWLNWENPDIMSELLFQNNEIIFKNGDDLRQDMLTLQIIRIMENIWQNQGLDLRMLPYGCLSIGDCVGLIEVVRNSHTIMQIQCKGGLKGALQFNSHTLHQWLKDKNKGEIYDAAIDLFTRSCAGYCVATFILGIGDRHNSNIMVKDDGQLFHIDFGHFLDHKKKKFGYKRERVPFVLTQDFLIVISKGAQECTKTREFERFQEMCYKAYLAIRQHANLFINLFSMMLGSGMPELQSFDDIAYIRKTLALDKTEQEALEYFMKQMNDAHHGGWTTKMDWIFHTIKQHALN
T2 sequence (P27986 whole entry partner): as the sequence (P27986 whole entry partner) above
T3 sequence (P48736 whole entry): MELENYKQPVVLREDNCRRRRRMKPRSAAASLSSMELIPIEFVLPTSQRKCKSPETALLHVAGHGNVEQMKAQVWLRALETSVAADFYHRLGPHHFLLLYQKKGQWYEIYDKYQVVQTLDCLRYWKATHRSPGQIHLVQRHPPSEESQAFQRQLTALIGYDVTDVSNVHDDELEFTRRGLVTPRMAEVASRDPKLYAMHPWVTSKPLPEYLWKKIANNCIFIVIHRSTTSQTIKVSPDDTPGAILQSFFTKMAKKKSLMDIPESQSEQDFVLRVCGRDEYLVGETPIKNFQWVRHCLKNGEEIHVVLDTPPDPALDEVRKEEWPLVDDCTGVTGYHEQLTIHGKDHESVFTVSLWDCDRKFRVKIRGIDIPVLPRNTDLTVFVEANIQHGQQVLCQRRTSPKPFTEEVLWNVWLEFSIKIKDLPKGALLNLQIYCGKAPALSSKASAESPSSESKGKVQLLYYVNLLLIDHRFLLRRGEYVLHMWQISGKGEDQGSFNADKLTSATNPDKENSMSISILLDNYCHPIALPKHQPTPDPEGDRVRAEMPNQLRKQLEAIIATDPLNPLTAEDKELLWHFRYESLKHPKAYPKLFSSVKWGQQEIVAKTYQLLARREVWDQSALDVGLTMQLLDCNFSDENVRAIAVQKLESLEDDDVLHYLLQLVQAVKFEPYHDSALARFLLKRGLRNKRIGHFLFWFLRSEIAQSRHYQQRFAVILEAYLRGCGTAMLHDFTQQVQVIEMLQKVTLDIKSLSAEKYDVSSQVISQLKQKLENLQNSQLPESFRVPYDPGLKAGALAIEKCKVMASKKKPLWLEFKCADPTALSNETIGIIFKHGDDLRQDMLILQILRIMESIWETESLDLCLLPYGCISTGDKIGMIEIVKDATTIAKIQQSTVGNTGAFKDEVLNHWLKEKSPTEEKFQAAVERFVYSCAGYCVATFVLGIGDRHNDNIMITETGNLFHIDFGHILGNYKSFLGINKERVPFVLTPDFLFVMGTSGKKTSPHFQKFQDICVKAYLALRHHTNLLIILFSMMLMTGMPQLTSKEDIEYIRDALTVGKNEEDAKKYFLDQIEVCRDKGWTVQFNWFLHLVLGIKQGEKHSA

Row | Structure (SMILES) | IC50 (PI3K β (p110β/p85α)) [nM] | IC50 (PI3K α (p110α/p85α)) [nM] | IC50 (PI3K γ (p110γ)) [nM] | IC50 (PI3K δ) [nM]
1 | CN1CCC(Nc2cnc3ccc(-c4ccc5oc(N)nc5c4)cc3n2)CC1 [Compound 81] | < 1000 | < 100 | < 1000 | < 100
2 | CC(=O)N1CCC(Nc2cnc3ccc(-c4ccc5oc(N)nc5c4)cc3n2)CC1 [Compound 82] | < 10000 | < 100 | < 100 | < 100
3 | Nc1nc2cc(-c3ccc4ncc(C(=O)NC5CCOCC5)n4c3)ccc2o1 [Compound 83] | < 10000 | < 100 | < 100 | < 100
4 | CC(C)N1CCN(c2cnc3ccc(-c4ccc5oc(N)nc5c4)cc3n2)CC1 [Compound 84] | < 100 | < 100 | < 100 | < 1000
5 | CC(=O)N1CCN(c2cnc3ccc(-c4ccc5oc(N)nc5c4)cc3n2)CC1 [Compound 85] | < 100 | < 100 | < 100 | < 100
6 | CS(=O)(=O)N1CCN(c2cnc3ccc(-c4ccc5oc(N)nc5c4)cc3n2)CC1 [Compound 86] | < 1000 | < 100 | < 100 | < 1000
7 | CS(=O)(=O)N1CCC(Nc2ncnc3ccc(-c4ccc5oc(N)nc5c4)cc23)CC1 [Compound 87] | < 1000 | < 100 | < 100 | < 100
8 | Nc1nc2cc(-c3ccc4ncc(N5CCNCC5)nc4c3)ccc2o1 [Compound 88] | < 100 | < 100 | < 1000 | < 10000
9 | Nc1nc2cc(-c3ccc4ncnc(NC5CCN(C(=O)C6CC6)CC5)c4c3)ccc2o1 [Compound 89] | < 10000 | < 100 | < 100 | < 100
10 | CS(=O)(=O)CCN1CCN(c2cnc3ccc(-c4ccc5oc(N)nc5c4)cc3n2)CC1 [Compound 90] | < 1000 | < 100 | < 1000 | < 10000
11 | Cc1nc2ccc(-c3ccc4oc(N)nc4c3)cn2c1C(=O)N1CCN(C)CC1 [Compound 91] | > 10000 | > 10000 | > 10000 | > 10000
12 | Cc1nc2ccc(-c3ccc4oc(N)nc4c3)cn2c1C(=O)N1CCOCC1 [Compound 92] | > 10000 | > 10000 | > 10000 | > 10000
13 | CS(=O)(=O)N1CCC(Nc2cnc3ccc(-c4ccc5oc(N)nc5c4)cc3n2)CC1 [Compound 95] | < 10000 | < 100 | < 100 | < 100
14 | Nc1nc2cc(-c3ccc4ncc(NC5CCOCC5)nc4c3)ccc2o1 [Compound 96] | < 10000 | < 100 | < 100 | < 1000
15 | Nc1nc2cc(-c3ccc4ncc(C(=O)N5CCOCC5)cc4c3)ccc2o1 [Compound 97] | > 10000 | < 10000 | > 10000 | > 10000
16 | Nc1nc2cc(-c3ccc4ncc(N5CCS(=O)(=O)CC5)nc4c3)ccc2o1 [Compound 98] | > 10000 | < 100 | < 100 | > 10000
17 | Nc1nc2cc(-c3ccc4ncc(N5CCC(O)CC5)nc4c3)ccc2o1 [Compound 99] | < 10000 | < 100 | < 1000 | < 1000
18 | Nc1nc2cc(-c3ccc4ncc(N5CCN(CCO)CC5)nc4c3)ccc2o1 [Compound 100] | < 100 | < 100 | < 1000 | < 10000
19 | CC(C)N1CCC(Nc2ncnc3ccc(-c4ccc5oc(N)nc5c4)cc23)CC1 [Compound 101] | < 10000 | < 100 | < 10000 | < 1000
20 | CC(C)(C#N)c1ccc(Nc2ncnc3ccc(-c4ccc5oc(N)nc5c4)cc23)cc1 [Compound 102] | < 1000 | < 100 | < 100 | < 1000
21 | CN1CCN(C(=O)c2cnc3ccc(-c4ccc5oc(N)nc5c4)nn23)CC1 [Compound 104] | > 10000 | < 10000 | < 10000 | > 10000
22 | Nc1nc2cc(-c3ccc4ncc(C(=O)N5CCOCC5)n4n3)ccc2o1 [Compound 105] | < 10000 | < 1000 | < 1000 | > 10000
23 | C[C@@H]1CN(C(=O)c2cnc3ccc(-c4ccc5oc(N)nc5c4)cn23)C[C@H](C)O1 [Compound 106] | > 10000 | < 10000 | < 10000 | > 10000
24 | Nc1nc2cc(-c3ccc4ncc(-c5cnn(CCO)c5)nc4c3)ccc2o1 [Compound 108] | < 10000 | < 100 | < 100 | > 10000
25 | Nc1nc2cc(-c3ccc4ncc(S(=O)(=O)N5CCOCC5)n4c3)ccc2o1 [Compound 109] | > 10000 | > 10000 | > 10000 | > 10000
